Data reported in patent US10506810B2, “Synergistic herbicidal composition” (QINGDAO KINGAGROOT RESISTANT WEED MANAGEMENT CO., LTD., priority 2015, dated 2019).
Where two headings read alike, the source gives them in different places.

Columns and labels:
Test in all cases: pot-culture method, stem and leaf treatment in greenhouse, fresh weight inhibition rate 20 days after treatment (Gowing method)
Type in all cases: in vivo
[1] = test system: Myosoton aquaticum; details: Myosoton aquaticum, 480 h, read-out: actual fresh weight inhibition rate
Experimental: (§1) Capsella bursa-pastoris, Myosoton aquaticum, Alopecurus japonicus were collected from corn fields in Huangdao Experimental Base of Shandong Province.
(§2) The above weeds were cultivated by a pot culture method. […] Full and uniform weed seeds were selected, soaked in warm water at 25° C. for 6 hours, and germinated in a 28° C. biochemical incubator (darkness). […] A certain amount of water was added to the enamel pan regularly to keep the soil moist.
(§3) The technical materials were all dissolved in acetone, and diluted with an aqueous solution containing 0.1% emulsifier T-80. The dilution is performed as required.
(§4) A ratio of the active ingredient A to the active ingredient B and amounts thereof in each group depends on the characteristics and toxicity of the two agents, as well as the main application purpose of a corresponding formulation. Based on the pre-tests in this study, the dosage of the active ingredient A and the active ingredient B applied alone and in combination were shown in the tables, and a total 15 groups were designed. Water containing the solvent and emulsifier same with the above groups but free of the agents was used as a blank control.
(§5) 3 pots with 20 weed seeds per pot were treated in one treatment with […] per treatment, that is, a total of 60 weeds were treated in one treatment.
(§6) The agents were used for only once in the experiment. In the stage of weeds with 2 leaves and 1 core, the weeds were thinned out to maintain 15 weeds per pot and 45 weeds for each treatment, then continued to be cultured to 3-5-leaves stage of Capsella bursa-pastoris and Myosoton aquaticum, and 3-leaves and 1-core stage of Alopecurus japonicus, and treated.
(§7) The well-cultured weeds were evenly placed on a platform with an area of 0.5 m^2, and a solution of agents was sprayed on the stems and leaves thereof by the 3WP-2000-type walking spray tower at a dosage of 30 kg/ha and at a spray pressure of 0.3 MPa. After all the solution was sprayed, the valve was closed. After 30 seconds, the door of the spray tower was opened, and the nutritional bowl was taken out. Then the valve was opened, and the spray tube was cleaned by spraying 50 ml of water.
(§8) A pot-culture method was employed. For the cultivation of weeds, please refer to the Section 1.2, and “Pesticide guidelines for laboratory bioactivity tests—herbicides”. As to a method for applying agents, please refer to the section 2.3.2, that is, a method for treating stems and leaves was employed.
(§9) A method for investigating absolute number was employed, wherein whole seedlings of survival weeds were cut off with a blade along the soil surface, and the fresh weight of the weeds was weighed with an analytical balance. For dead weeds, the fresh weight thereof was zero.
(§10) The investigation was performed after 20 days of the treatment for only once.
(§11) Wherein, in the formula, X represented the fresh weight inhibition rate of the active ingredient A in a dosage of P, and Y represented the fresh weight inhibition rate of the active ingredient B in a dosage of Q.

[2] = test system: Alopecurus japonicus
Experimental: as §1, §2, §3, §4, §5, §6, §7, §8, §9, §10, §11

[3] = test system: Capsella bursa-pastoris; details: 480 h, Capsella bursa-pastoris, read-out: actual fresh weight inhibition rate
Experimental: as §1, §2, §3, §4, §5, §6, §7, §8, §9, §10, §11

For `Cc1nn(C)cc1C(=O)Oc1c(C(=O)c2ccc(C(F)(F)F)cc2S(C)(=O)=O)c(C)nn1C` [active ingredient A], the pest or weed control at 15 g/ha ([1]; Myosoton aquaticum (Table 19), 15 g/hm^2) was 13.2%, the pest or weed control at 30 g/ha ([1]; Myosoton aquaticum (Table 19), 30 g/hm^2) was 16.5% and the pest or weed control at 45 g/ha ([1]; Myosoton aquaticum (Table 19), 45 g/hm^2) was 24.6%. It also gave a pest or weed control at 15 g/ha ([1]; 15 g/hm^2) of 67.4%, a pest or weed control at 30 g/ha ([1]; 30 g/hm^2) of 87.6% and a pest or weed control at 45 g/ha ([1]; 45 g/hm^2) of 100%. The pest or weed control at 15 g/ha ([1]; dosage 15 g/hm^2) was 67.4%, the pest or weed control at 30 g/ha ([1]; dosage 30 g/hm^2) was 87.6% and the pest or weed control at 45 g/ha ([1]; dosage 45 g/hm^2) was 100%. For the same compound, the “actual fresh weight inhibition rate” value ([2]; Alopecurus japonicus, 15 g/hm^2) was 13.2%, the “actual fresh weight inhibition rate” value ([2]; Alopecurus japonicus, 30 g/hm^2) was 16.5% and the “actual fresh weight inhibition rate” value ([2]; Alopecurus japonicus, 45 g/hm^2) was 24.6%. The “actual fresh weight inhibition rate” value ([2]; dosage 15 g/hm^2) was 13.2%, the “actual fresh weight inhibition rate” value ([2]; dosage 30 g/hm^2) was 16.5% and the “actual fresh weight inhibition rate” value ([2]; dosage 45 g/hm^2) was 24.6%. It also gave a pest or weed control at 15 g/ha ([3]; 15 g/hm^2) of 72.3%, a pest or weed control at 30 g/ha ([3]; 30 g/hm^2) of 90.5% and a pest or weed control at 45 g/ha ([3]; 45 g/hm^2) of 100%.
